The target in one assay is T1, PK receptors (Rattus norvegicus, UniProt P16257).
T1 construct: Tissue preparations of rat kidney homogenate; from tissue; host or cells: rat kidney homogenate
Description: Inhibition of [^3 H]PK11195 binding to PK receptors in rat kidney homogenate. The following applies: [^3 H]PK11195, 60 min, room temperature, Average, N-2. As to the method:
The binding affinities of representative compounds of the invention are given in Table I. In this study, the compounds having the generic structure defined, supra, were tested for their ability to inhibit the binding of a known PK receptor antagonist [^3 H]PK11195, to PK receptors in a rat kidney homogenate preparation.
Tissue preparations of rat kidney homogenate were incubated with [^3 H]PK11195 and competitors (i.e. 9a-d & 23a-c, at 12 concentrations ranging from 10^-11 to 10^-6 […]) in an assay buffer. The assay mixture was incubated for 60 min. at room temperature with stirring and the resulting samples were rapidly filtered through Whatman GF/B glass-fiber filters pretreated with 0.2% protamine base and washed with cold buffer, pH 7.4. The filters were counted in a liquid scintillation counter at an efficiency of 65% for tritium saturation binding, Scatchard and competition experiments were analyzed with the iterative nonlinear least squares curve-fitting program. For comparison, for PK11195, X is Cl, Y and Z are H, and R is 2-butyl. Compounds having the lower Ki values were the most As effective inhibitors, and therefore bound the PK-receptor at the lowest concentrations. Compounds of the invention are also useful for radiation therapy, based on their specific affinity for glial tumor cells.

For the next assay, the system named is PK receptor sites. The following applies: background statement; cited from earlier work.

pKi: −log10 of the molar value. Where “and” joins values, the source holds several entries; their conditions need not be identical. Equal values may be shown once.

At PK receptors, `CN(CCF)C(=O)c1cc2ccccc2c(-c2ccccc2I)n1` [I H H CH2 CH2 F, 1-(2-iodophenyl)-N-methyl-N-(2-fluoroethyl)-3-isoquinolinecarboxamide] gave a pKi of 6.38.
Turning to `CCC(C)N(C)C(=O)c1cc2ccccc2c(-c2cccc(I)c2)n1` (stereo not shown) [H I H CH3 CHCH2 CH3], the pKi on PK receptors was 8.55 and 8.82.
With `CN(CCCF)C(=O)c1cc2ccccc2c(-c2ccc(I)cc2)n1` [H H I CH2 CH2 CH2 F, 1-(4-iodophenyl)-N-methyl-N-(3-fluoropropyl)-3-isoquinolinecarboxamide], on PK receptors, the pKi was 7.20.
In turn, `CN(CCCF)C(=O)c1cc2ccccc2c(-c2ccccc2I)n1` [H H CH2 CH2 CH2 F, 1-(2-iodophenyl)-N-methyl-N-(3-fluoropropyl)-3-isoquinolinecarboxamide] showed a pKi at PK receptors of 9.59. Against the preceding compound, the pKi is 2.39 log units higher.
Take `CCC(C)N(C)C(=O)c1cc2ccccc2c(-c2ccc(I)cc2)n1` (stereo not shown) [H H I CH3 CHCH2 CH3]: the pKi at PK receptors is 8.51 and 8.80.
The compound `CN(CCCF)C(=O)c1cc2ccccc2c(-c2cccc(I)c2)n1` [H I H CH2 CH2 CH2 F, 1-(3-iodophenyl)-N-methyl-N-(3-fluoropropyl)-3-isoquinolinecarboxamide] showed a pKi at PK receptors of 8.89.
As to `CCC(C)N(C)C(=O)c1cc2ccccc2c(-c2ccccc2Cl)n1` (stereo not shown) [PK11195, 1-(2-chlorophenyl)-N-methyl-N-(alkyl)-3-isoquinoline carboxamide], the “binding to PK receptor sites” value with PK receptor sites is “binds strongly”.

The values above are taken from US5998624A, “Haloisoquinoline carboxamide” (Emory University, priority 1998, dated 1999).
